Source: patent US9637483B2, “Heterocyclic compound” (TAKEDA PHARMACEUTICAL COMPANY LIMITED, priority 2013, dated 2017)

Experiments:
Type in all cases: biochemical
JAK3 = molecular target: T1, JAK3 (Homo sapiens, UniProt P52333); test: JAK3 enzyme inhibition test (LANCE method); settings: 1 μM test compound; for inhibition at 1 µM: read-out: JAK3 enzyme inhibitory activity (%, 1 μM)
T1 construct: purchased Invitrogen
T1 sequence (P52333 1-1124): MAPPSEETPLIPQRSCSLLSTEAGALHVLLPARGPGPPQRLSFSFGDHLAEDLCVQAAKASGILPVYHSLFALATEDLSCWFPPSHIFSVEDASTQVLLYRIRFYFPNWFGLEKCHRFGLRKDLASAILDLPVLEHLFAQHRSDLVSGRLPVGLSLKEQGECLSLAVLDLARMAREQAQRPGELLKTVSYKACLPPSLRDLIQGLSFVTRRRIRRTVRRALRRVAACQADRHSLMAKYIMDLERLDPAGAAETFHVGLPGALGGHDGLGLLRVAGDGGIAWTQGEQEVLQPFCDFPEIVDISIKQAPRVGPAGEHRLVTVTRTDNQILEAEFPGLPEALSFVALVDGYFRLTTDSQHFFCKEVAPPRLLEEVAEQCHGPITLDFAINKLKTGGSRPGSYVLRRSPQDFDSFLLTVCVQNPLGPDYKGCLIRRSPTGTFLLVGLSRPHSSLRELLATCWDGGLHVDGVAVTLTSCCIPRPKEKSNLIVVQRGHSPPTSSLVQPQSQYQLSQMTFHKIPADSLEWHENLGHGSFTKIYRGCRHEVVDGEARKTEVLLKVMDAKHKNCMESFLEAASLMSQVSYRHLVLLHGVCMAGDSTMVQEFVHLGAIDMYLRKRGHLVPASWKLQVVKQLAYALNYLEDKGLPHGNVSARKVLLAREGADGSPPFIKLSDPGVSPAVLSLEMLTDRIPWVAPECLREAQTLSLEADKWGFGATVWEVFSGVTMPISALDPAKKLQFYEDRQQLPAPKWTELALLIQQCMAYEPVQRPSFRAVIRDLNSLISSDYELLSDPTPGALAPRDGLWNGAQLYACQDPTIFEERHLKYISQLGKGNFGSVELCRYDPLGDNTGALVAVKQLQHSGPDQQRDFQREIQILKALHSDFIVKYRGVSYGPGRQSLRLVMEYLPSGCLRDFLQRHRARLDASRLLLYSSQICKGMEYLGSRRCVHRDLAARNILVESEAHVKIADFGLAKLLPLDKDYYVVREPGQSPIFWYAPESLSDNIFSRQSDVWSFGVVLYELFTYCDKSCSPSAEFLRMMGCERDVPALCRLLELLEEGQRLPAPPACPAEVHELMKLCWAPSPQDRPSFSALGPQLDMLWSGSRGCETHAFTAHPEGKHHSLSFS
How it was run: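 Recombinant JAK3 (12 ng/mL solution) with ULight-JAK1 peptide (300 nM solution) and ATP (15 μM solution) in HEPES pH 7.5 buffer, 1 h at room temperature. EDTA stop with Eu-anti-phosphotyrosine antibody; TR-FRET at 665 nm. Inhibition relative to enzyme-free wells as 100%.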

JAK1 = molecular target: T2, JAK1 (Homo sapiens, UniProt P23458); test: JAK1 enzyme inhibition test (LANCE method); settings: 1 μM test compound; for inhibition at 1 µM: read-out: JAK1 enzyme inhibitory activity (%, 1 μM)
T2 construct: purchased Invitrogen
T2 sequence (P23458 whole entry): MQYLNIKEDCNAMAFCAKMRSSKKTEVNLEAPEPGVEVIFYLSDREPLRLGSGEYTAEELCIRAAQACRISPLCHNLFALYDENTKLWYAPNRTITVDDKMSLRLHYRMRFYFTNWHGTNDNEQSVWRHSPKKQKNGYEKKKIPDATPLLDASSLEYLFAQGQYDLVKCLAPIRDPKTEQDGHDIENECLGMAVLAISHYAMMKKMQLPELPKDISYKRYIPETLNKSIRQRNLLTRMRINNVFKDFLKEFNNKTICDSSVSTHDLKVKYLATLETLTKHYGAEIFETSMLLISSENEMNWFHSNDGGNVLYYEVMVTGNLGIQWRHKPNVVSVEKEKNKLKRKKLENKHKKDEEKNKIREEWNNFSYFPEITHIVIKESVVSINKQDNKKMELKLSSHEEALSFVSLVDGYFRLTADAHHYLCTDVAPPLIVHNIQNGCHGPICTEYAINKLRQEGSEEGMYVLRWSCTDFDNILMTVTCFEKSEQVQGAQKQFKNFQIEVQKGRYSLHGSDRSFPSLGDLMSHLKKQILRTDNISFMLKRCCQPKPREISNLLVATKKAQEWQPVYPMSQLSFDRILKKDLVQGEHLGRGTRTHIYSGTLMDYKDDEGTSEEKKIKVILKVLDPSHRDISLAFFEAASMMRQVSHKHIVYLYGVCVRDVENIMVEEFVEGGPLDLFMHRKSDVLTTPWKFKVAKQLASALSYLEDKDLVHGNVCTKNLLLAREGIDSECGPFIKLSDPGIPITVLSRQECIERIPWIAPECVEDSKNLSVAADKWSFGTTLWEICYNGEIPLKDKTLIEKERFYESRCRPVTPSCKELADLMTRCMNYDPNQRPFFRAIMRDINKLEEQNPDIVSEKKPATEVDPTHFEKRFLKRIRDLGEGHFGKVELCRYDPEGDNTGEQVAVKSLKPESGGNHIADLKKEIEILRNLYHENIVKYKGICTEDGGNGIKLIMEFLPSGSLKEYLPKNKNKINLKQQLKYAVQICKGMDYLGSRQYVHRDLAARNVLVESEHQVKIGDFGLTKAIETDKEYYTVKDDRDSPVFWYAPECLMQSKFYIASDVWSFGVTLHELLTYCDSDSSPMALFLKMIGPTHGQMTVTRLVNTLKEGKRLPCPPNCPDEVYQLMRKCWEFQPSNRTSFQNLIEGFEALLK
How it was run: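 TR-FRET (LANCE) with ULight-JAK1 peptide (300 nM working solution) and ATP (150 μM working solution) in HEPES pH 7.5, MgCl2, EGTA, DTT buffer; 1 h at room temperature. EDTA stop plus Eu-anti-phosphotyrosine antibody, 665 nm read after 1 h. Inhibition relative to enzyme-free wells as 100%.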

TYK2 = molecular target: T3, TYK2 (Homo sapiens, UniProt P29597); test: TYK2 enzyme inhibition test (LANCE method); settings: 1 μM test compound; for inhibition at 1 µM: read-out: TYK2 enzyme inhibitory activity (%, 1 μM)
T3 construct: purchased Invitrogen
T3 sequence (P29597 whole entry): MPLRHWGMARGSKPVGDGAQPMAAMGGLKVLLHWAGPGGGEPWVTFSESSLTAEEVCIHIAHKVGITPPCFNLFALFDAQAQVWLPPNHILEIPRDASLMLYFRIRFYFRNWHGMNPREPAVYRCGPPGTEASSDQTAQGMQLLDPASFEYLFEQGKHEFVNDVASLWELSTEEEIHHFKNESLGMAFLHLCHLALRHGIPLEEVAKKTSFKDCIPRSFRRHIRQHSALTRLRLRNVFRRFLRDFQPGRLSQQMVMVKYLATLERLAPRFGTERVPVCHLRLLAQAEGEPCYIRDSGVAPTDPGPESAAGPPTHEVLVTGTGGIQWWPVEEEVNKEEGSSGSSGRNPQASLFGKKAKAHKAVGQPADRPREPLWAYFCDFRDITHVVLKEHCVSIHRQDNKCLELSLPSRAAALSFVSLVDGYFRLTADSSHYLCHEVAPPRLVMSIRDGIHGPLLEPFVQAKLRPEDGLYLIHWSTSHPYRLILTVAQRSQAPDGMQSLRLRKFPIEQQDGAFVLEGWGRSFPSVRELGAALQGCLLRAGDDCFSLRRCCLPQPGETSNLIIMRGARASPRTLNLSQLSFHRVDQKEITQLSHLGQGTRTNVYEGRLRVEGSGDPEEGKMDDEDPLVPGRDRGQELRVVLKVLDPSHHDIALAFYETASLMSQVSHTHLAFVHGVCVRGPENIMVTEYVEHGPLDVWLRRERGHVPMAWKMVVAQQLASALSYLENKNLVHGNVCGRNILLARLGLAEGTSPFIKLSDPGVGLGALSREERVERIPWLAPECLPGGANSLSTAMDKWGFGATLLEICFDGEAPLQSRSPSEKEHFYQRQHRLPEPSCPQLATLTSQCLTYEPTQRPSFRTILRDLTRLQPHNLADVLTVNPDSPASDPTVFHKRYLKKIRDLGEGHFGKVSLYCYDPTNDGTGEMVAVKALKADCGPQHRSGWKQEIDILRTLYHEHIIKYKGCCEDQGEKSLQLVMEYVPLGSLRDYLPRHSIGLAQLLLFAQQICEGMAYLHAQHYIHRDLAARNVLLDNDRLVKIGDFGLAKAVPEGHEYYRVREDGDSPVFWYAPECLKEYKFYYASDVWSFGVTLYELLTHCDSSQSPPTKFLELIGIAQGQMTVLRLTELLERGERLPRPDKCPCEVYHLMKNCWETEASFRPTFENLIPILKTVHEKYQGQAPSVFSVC
How it was run: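 Recombinant TYK2 (375 ng/mL working solution) with ULight-JAK1 peptide (300 nM working solution) and ATP (30 μM working solution) in HEPES pH 7.5 buffer with MgCl2, EGTA, DTT, Tween20, BSA, reacted 1 h at RT. EDTA-stopped, Eu-anti-phosphotyrosine TR-FRET read at 665 nm; inhibition relative to enzyme-free wells as 100%.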

JAK2 = molecular target: T4, JAK2 (Homo sapiens, UniProt O60674); test: JAK2 enzyme inhibition test (LANCE method); settings: 1 μM test compound; for inhibition at 1 µM: read-out: JAK2 enzyme inhibitory activity (%, 1 μM)
T4 construct: purchased Invitrogen
T4 sequence (O60674 whole entry): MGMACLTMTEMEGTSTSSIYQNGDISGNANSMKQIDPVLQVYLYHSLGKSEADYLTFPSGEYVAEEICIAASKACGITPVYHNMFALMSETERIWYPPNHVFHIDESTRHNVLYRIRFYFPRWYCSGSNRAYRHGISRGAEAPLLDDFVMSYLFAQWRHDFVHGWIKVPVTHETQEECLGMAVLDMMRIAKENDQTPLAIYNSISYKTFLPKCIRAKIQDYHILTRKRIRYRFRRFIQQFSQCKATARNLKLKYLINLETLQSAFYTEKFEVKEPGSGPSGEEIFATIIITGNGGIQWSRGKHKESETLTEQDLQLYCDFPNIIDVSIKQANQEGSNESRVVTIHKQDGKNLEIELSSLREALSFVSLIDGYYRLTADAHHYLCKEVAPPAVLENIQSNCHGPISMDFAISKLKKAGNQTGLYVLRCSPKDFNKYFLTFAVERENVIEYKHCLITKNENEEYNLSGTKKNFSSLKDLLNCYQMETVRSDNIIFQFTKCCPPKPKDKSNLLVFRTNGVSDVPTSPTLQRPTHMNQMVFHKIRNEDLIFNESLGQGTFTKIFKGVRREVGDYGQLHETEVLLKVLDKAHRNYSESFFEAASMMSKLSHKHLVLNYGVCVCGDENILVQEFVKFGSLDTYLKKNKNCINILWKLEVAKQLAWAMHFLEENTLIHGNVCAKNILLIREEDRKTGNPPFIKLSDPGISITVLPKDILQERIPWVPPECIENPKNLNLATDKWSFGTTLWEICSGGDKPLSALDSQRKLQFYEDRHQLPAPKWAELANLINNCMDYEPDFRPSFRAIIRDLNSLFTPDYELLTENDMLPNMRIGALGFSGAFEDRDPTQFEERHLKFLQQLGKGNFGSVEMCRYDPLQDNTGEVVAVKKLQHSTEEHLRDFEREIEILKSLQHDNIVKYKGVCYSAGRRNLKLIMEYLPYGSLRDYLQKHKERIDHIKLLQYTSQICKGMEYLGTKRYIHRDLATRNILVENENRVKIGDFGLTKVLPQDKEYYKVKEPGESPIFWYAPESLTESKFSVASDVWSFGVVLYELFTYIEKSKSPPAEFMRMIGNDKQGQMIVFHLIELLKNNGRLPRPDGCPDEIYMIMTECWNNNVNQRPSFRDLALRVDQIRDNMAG
How it was run: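 Recombinant JAK2 (6 ng/mL solution) phosphorylated ULight-JAK1 peptide (300 nM solution) with ATP (45 μM solution) in pH 7.5 HEPES/MgCl2/DTT buffer for 1 hr at room temperature. After EDTA stop and europium anti-phosphotyrosine antibody for 1 hr, TR-FRET read at 665 nm; inhibition relative to enzyme-free wells as 100%.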

Row | SMILES | inhibition at 1 µM (JAK3) [%] | inhibition at 1 µM (JAK1) [%] | inhibition at 1 µM (TYK2) [%] | inhibition at 1 µM (JAK2) [%] | JAK1 enzyme inhibitory activity (%, 1 μM) (JAK1) [%] | JAK3 enzyme inhibitory activity (%, 1 μM) (JAK3) [%] | TYK2 enzyme inhibitory activity (%, 1 μM) (TYK2) [%] | JAK2 enzyme inhibitory activity (%, 1 μM) (JAK2) [%]
1 | Cn1nc(-c2cn(-c3c(F)cccc3F)c(=O)c3c(N)n[nH]c23)cc1C(=O)N1CCOCC1 [Example 66, 3-amino-5-(2,6-difluorophenyl)-7-(1-methyl-5-(morpholin-4-ylcarbonyl)-1H-pyrazol-3-yl)-1,5-dihydro-4H-pyrazolo[4,3-c]pyridin-4-one] | 100 | 99 | 100 | 99 |  |  |  | 
2 | Cn1nc(-c2cn(-c3c(F)cccc3C#N)c(=O)c3c(N)n[nH]c23)cc1N1CCOCC1 [Example 67, 2-(3-amino-7-(1-methyl-5-(morpholin-4-yl)-1H-pyrazol-3-yl)-4-oxo-1,4-dihydro-5H-pyrazolo[4,3-c]pyridin-5-yl)-3-fluorobenzonitrile] | 99 | 98 | 100 | 97 |  |  |  | 
3 | Cn1nc(-c2cn(-c3c(F)cccc3C#N)c(=O)c3c(N)n[nH]c23)cc1C1=CCOCC1 [Example 68, 2-(3-amino-7-(5-(3,6-dihydro-2H-pyran-4-yl)-1-methyl-1H-pyrazol-3-yl)-4-oxo-1,4-dihydro-5H-pyrazolo[4,3-c]pyridin-5-yl)-3-fluorobenzonitrile] | 99 | 99 | 99 | 97 |  |  |  | 
4 | Cn1nc(-c2cn(-c3c(F)cccc3C#N)c(=O)c3c(N)n[nH]c23)cc1C1CCOCC1 [Example 69, 2-(3-amino-7-(1-methyl-5-(tetrahydro-2H-pyran-4-yl)-1H-pyrazol-3-yl)-4-oxo-1,4-dihydro-5H-pyrazolo[4,3-c]pyridin-5-yl)-3-fluorobenzonitrile] | 98 | 97 | 99 | 96 |  |  |  | 
5 | CN1CCN(c2cc(-c3cn(-c4c(F)cccc4C#N)c(=O)c4c(N)n[nH]c34)nn2C)CC1 [Example 70, 2-(3-amino-7-(1-methyl-5-(4-methylpiperazin-1-yl)-1H-pyrazol-3-yl)-4-oxo-1,4-dihydro-5H-pyrazolo[4,3-c]pyridin-5-yl)-3-fluorobenzonitrile] | 99 | 97 | 100 | 96 |  |  |  | 
6 | Cn1nc(-c2cn(-c3c(F)cccc3C#N)c(=O)c3c(N)n[nH]c23)cc1C(C)(C)O [Example 71, 2-(3-amino-7-(5-(2-hydroxypropan-2-yl)-1-methyl-1H-pyrazol-3-yl)-4-oxo-1,4-dihydro-5H-pyrazolo[4,3-c]pyridin-5-yl)-3-fluorobenzonitrile] | 98 | 98 | 99 | 97 |  |  |  | 
7 | Cn1nc(-c2cn(C3CCCC3(C)C)c(=O)c3c(N)n[nH]c23)cc1CN1CCS(=O)(=O)CC1 (stereo not drawn) [Example 74, 3-amino-5-(2,2-dimethylcyclopentyl)-7-(5-((1,1-dioxidothiomorpholin-4-yl)methyl)-1-methyl-1H-pyrazol-3-yl)-1,5-dihydro-4H-pyrazolo[4,3-c]pyridin-4-one] | 99 |  | 99 | 100 | 98 |  |  | 
8 | Cn1nc(-c2cn(C3CCCC3(C)C)c(=O)c3c(N)n[nH]c23)cc1CN1CCS(=O)(=O)CC1 (stereo not drawn) [Example 75, 3-amino-5-(2,2-dimethylcyclopentyl)-7-(5-((1,1-dioxidothiomorpholin-4-yl)methyl)-1-methyl-1H-pyrazol-3-yl)-1,5-dihydro-4H-pyrazolo[4,3-c]pyridin-4-one] |  |  |  |  | 66 | 93 | 92 | 87
9 | Cn1nc(-c2cn(C3CCCC3(C)C)c(=O)c3c(N)n[nH]c23)cc1N1CCOCC1 (stereo not drawn) [Example 76, 3-amino-5-(2,2-dimethylcyclopentyl)-7-(1-methyl-5-(morpholin-4-yl)-1H-pyrazol-3-yl)-1,5-dihydro-4H-pyrazolo[4,3-c]pyridin-4-one] | 100 | 99 | 100 | 99 |  |  |  | 
10 | Cn1nc(-c2cn(C3CCCC3(C)C)c(=O)c3c(N)n[nH]c23)cc1N1CCOCC1 (stereo not drawn) [Example 77, 3-amino-5-(2,2-dimethylcyclopentyl)-7-(1-methyl-5-(morpholin-4-yl)-1H-pyrazol-3-yl)-1,5-dihydro-4H-pyrazolo[4,3-c]pyridin-4-one] |  |  |  |  | 79 | 90 | 96 | 84

Results, then the compound that gave them:

Row | inhibition at 1 µM (JAK3) [%] | inhibition at 1 µM (JAK1) [%] | inhibition at 1 µM (TYK2) [%] | inhibition at 1 µM (JAK2) [%] | JAK1 enzyme inhibitory activity (%, 1 μM) (JAK1) [%] | JAK3 enzyme inhibitory activity (%, 1 μM) (JAK3) [%] | TYK2 enzyme inhibitory activity (%, 1 μM) (TYK2) [%] | JAK2 enzyme inhibitory activity (%, 1 μM) (JAK2) [%] | SMILES
11 | 100 | 98 | 99 | 99 |  |  |  |  | Cn1nc(-c2cn(C(C3CC3)C3CC3)c(=O)c3c(N)n[nH]c23)cc1N1CCS(=O)(=O)CC1 [Example 78, 3-amino-5-(dicyclopropylmethyl)-7-(5-(1,1-dioxidothiomorpholin-4-yl)-1-methyl-1H-pyrazol-3-yl)-1,5-dihydro-4H-pyrazolo[4,3-c]pyridin-4-one]
12 | 100 | 99 | 99 | 99 |  |  |  |  | Cn1nc(-c2cn(C(C3CC3)C3CC3)c(=O)c3c(N)n[nH]c23)cc1N1CCOCC1 [Example 79, 3-amino-5-(dicyclopropylmethyl)-7-(1-methyl-5-(morpholin-4-yl)-1H-pyrazol-3-yl)-1,5-dihydro-4H-pyrazolo[4,3-c]pyridin-4-one]
13 | 98 | 89 | 99 | 91 |  |  |  |  | CC(C)C(C(F)F)n1cc(-c2cc(N3CCOCC3)n(C)n2)c2[nH]nc(N)c2c1=O (stereo not drawn) [Example 80, 3-amino-5-(1,1-difluoro-3-methylbutan-2-yl)-7-(1-methyl-5-(morpholin-4-yl)-1H-pyrazol-3-yl)-1,5-dihydro-4H-pyrazolo[4,3-c]pyridin-4-one]
14 | 100 | 99 | 99 | 100 |  |  |  |  | CC(n1cc(-c2cc(N3CCOCC3)n(C)n2)c2[nH]nc(N)c2c1=O)C1(C)CC1 (stereo not drawn) [Example 81, 3-amino-5-(1-(1-methylcyclopropyl)ethyl)-7-(1-methyl-5-(morpholin-4-yl)-1H-pyrazol-3-yl)-1,5-dihydro-4H-pyrazolo[4,3-c]pyridin-4-one]
15 | 97 | 89 | 99 | 87 |  |  |  |  | CC(C)C(n1cc(-c2cc(N3CCOCC3)n(C)n2)c2[nH]nc(N)c2c1=O)C(F)(F)F (stereo not drawn) [Example 82, 3-amino-7-(1-methyl-5-(morpholin-4-yl)-1H-pyrazol-3-yl)-5-(1,1,1-trifluoro-3-methylbutan-2-yl)-1,5-dihydro-4H-pyrazolo[4,3-c]pyridin-4-one]
